Read-outs that look alike come from different tables or passages of the source.
Legend:
brain MAO-B enzyme = target: T1, brain MAO-B enzyme (Homo sapiens, UniProt P27338); conditions: ref Roche data on file, cited from earlier work; for Brain MAO-B inhibition: young healthy subjects
T1 sequence (P27338 1-520): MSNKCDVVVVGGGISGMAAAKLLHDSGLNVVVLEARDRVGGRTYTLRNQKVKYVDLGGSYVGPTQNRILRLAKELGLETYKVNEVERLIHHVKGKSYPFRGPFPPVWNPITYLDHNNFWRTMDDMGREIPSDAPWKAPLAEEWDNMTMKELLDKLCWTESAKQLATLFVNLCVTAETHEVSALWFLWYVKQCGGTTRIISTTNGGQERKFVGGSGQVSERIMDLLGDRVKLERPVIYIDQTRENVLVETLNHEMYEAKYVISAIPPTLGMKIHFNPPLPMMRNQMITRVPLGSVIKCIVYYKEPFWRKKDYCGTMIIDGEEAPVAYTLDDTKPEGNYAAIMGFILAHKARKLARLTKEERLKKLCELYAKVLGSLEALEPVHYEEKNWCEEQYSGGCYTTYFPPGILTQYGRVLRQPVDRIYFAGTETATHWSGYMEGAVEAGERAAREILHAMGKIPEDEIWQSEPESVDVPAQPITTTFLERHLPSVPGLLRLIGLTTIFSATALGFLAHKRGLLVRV

MAO-A = tested on: MAO-A; design: method as in doi:10.1016/j.jalz.2013.05.1757; conditions: MAO-B over MAO-A; cited from earlier work
[1] = Safety assessments in this PET study; assay type: in vivo, human
Procedure: The safety of sembragiline was assessed by monitoring vital signs, laboratory tests and adverse events (AEs), and by evaluating the risk of suicide using the Columbia Suicide Severity Rating Scale.

CC(=O)N[C@H]1CC(=O)N(c2ccc(OCc3cccc(F)c3)cc2)C1 [sembragiline]
Brain penetration (brain MAO-B enzyme; healthy young men, PET imaging): crosses the blood–brain barrier
Brain MAO-B inhibition (brain MAO-B enzyme; 5 mg daily for 2–10 days, cortical regions): 52–78%
Brain MAO-B inhibition (brain MAO-B enzyme; 5 mg daily for 2–10 days, subcortical regions): 73–87%
Brain MAO-B inhibition (brain MAO-B enzyme; 15 mg, cortical regions): 68–74%
Brain MAO-B inhibition (brain MAO-B enzyme; 15 mg, subcortical regions): 83–86%
Potency in inhibiting MAO-B relative to MAO-A (MAO-A): approximately 600 fold
AEs reported as drug-related ([1]; 16 treated subjects (AD and EC)): 11 of 20
Changes in laboratory parameters, vital signs or ECG measurements ([1]; AD patients and EC subjects): no clinically significant changes
Tolerability ([1]; AD patients and EC subjects, 0.1–5 mg daily for 6–15 days): well tolerated

Source: publication PMC5281649 (European Journal of Nuclear Medicine and Molecular Imaging, 2016)
